# Source: US20140242174A1, “TREATING COUGH AND TUSSIVE ATTACKS” (VERONA PHARMA PLC, priority 2011, published 2014)
# Key:
# [1] = tested on: intractable, persistent cough due to interstitial lung disease; assay: Double blind, randomized, placebo-controlled, cross-over clinical study of inhaled carcainium chloride; format: in vivo, human
# Text: The aim of the clinical study was to determine the clinical effectiveness and safety of carcainium chloride by the inhaled route in hospital in-patients with intractable, persistent cough due to interstitial lung disease.
# A double blind, randomized, placebo-controlled, cross-over study design was used to assess the effect of carcainium chloride as an anti-tussive in patients with interstitial lung disease.
# The study was constructed as an adaptive contingency trial. In such a trial the outcome of each “test” of the drug against placebo is scored as either a positive or negative result (i.e. a binary decision, rather than a quantitative measure). Based on the outcome of this “test”, the trial either continues or halts. Patients attended two study visits where they were randomised to receive either: • carcainium chloride at a dose of 1.0 mg/kg on the first study visit followed by placebo (sodium chloride 0.9%) on the second visit; or • placebo (sodium chloride 0.9%) on the first visit followed by carcainium chloride at 1.0 mg/kg on the second visit.
# Assessment of each patient was based on the following criteria. • 1 A physician's professional judgment of individual patient responses in a double blind crossover study with carcainium chloride and placebo in terms of anti-tussive action. • 2. Each patient's subjective comfort using a visual analogue scale (VAS), pre- and post-treatment. • 3. Each patient's coughs recorded in pre- and post-treatment periods for active and placebo treatments.
# Carcainium chloride is a fine white dry powder and was provided in tightly closed vessels and stored in dark at room temperature upon receipt. The vehicle used for the dilution of carcainium chloride and for the placebo was 0.9% NaCl injection.
# Patients were then administered the active or placebo sample, according to the above schedule, as an aerosol generated using an ultrasonic nebulizer (DeVilbiss Ultraneb).
# In 8 out of 8 trials, the two physicians acting in concert successfully identified the active treatment carcainium chloride. The outcome of this assessment or “test” after each study treatment administered was either a success in which an ‘anti-tussive’ effect was observed (i.e. positive) or a failure which was defined as no change from baseline or pro-tussive effect (i.e. negative). The clinical investigator decided on a positive or negative outcome for each “test” in a blinded fashion. The statistical significance of this finding is <0.05 by contingency table, 0.05-0.01 by Chi square.
# This was assessed on a 0-10 equal interval scale in the pre-drug and post-drug periods for active drug and placebo periods.
# The frequency of cough (number per unit time) was recorded using a semi-automated system which records cough epochs (sounds) that are counted by a qualified technician.
# [2] = LC/MS/MS measurement of carcainium chloride concentrations in human plasma; format: in vivo; conditions: patients administered 1 mg/kg carcainium chloride by inhalation; K2EDTA plasma
# Experimental: A liquid chromatography/tandem mass spectrometry (LC/MS/MS) assay method was developed, qualified, and implemented for the quantitation of carcainium chloride levels in K2EDTA human plasma samples collected from the human clinical study detailed above.
# Initially, carcainium chloride was dissolved in deionized water to provide an initial standard or quality control (QC) stock solution at a concentration of 1000 μg/mL. Serial dilutions were carried out with deionized water to provide secondary stock solutions for subsequent preparation of plasma calibration standards or QC samples according to Table 1 below. The internal standard lidocaine was dissolved in deionized water to provide an initial stock solution at a concentration of 1000 μg/mL. The initial internal standard stock solution was then serially diluted with deionized water to provide a spiking stock solution concentration of 50 ng/mL.
# A 10 μL aliquot of calibration standard stock solution or QC stock solution was transferred into individual 16×100 mm screw cap glass test tubes. For blank and blank with internal standard samples, 10 μL of deionized water was transferred instead. Human blank K2EDTA plasma (100 μL) was then added to each tube. A 50 μL aliquot of lidocaine internal standard spiking stock solution was transferred to each tube except for blank samples. A 50 μL aliquot of deionized water was added to blank samples. […]
# irritant-induced cough = conditions: healthy human volunteers; Phase II; cited from earlier work
smiles,measurement,setting,value
"C[N+](C)(CC(=O)Nc1ccccc1)CC(=O)Nc1ccccc1.[Cl-] [carcainium chloride, N,N-Bis-(phenylcarbamoylmethyl) dimethylammonium chloride]",Drug related adverse side effects in the human clinical study,[1]; 1 mg/kg inhaled,no significant drug related adverse side effects
same,Number of coughs recorded electronically (frequency of cough),"[1]; 1.0 mg/kg inhaled vs placebo, p=0.0007",statistically significant treatment effect
same,"Patient comfort score (VAS, 0-10 scale), pre- and post-drug","[1]; 1.0 mg/kg inhaled vs placebo, p=0.0140 by sum of signed ranks",statistically significant improvement in patient well-being
same,Physician assessment: trials in which the two physicians successfully identified the active treatment (anti-tussive effect),"[1]; 1.0 mg/kg inhaled, ultrasonic nebulizer, vs placebo 0.9% NaCl, blinded, significance <0.05 by contingency table, 0.05-0.01 by Chi square",8 out of 8
same,"Anti-tussive activity, summary of the clinical study","[1]; preliminary analysis, all three measures statistically significant",marked anti-tussive activity
same,Concentration of carcainium chloride in plasma samples,[2],1 to 50 ng/mL
same,melting point,,177 to 178 °C
same,Ability to inhibit cough (increase of the amount of irritant required to induce cough),irritant-induced cough,no statistically significant ability to inhibit cough
